Test results reported in US8318947B2, “Comestible compositions comprising high potency savory flavorants, and processes for producing them” (Senomyx, Inc., priority 2006, dated 2012).

Key:
[1] = biological target: T1, hT1R1/hT1R3 umami receptor expressed in an HEK293 cell line (Homo sapiens, UniProt Q7RTX0+Q7RTX1); experiment: Umami taste enhancement assay (EC50 ratio vs. MSG); type: cell-based
T1 construct: expressed in transfected cells; host or cells: HEK293 cell line derivative, clone 1-17, expression induced with mifepristone
T1 sequence (Q7RTX1 21-841): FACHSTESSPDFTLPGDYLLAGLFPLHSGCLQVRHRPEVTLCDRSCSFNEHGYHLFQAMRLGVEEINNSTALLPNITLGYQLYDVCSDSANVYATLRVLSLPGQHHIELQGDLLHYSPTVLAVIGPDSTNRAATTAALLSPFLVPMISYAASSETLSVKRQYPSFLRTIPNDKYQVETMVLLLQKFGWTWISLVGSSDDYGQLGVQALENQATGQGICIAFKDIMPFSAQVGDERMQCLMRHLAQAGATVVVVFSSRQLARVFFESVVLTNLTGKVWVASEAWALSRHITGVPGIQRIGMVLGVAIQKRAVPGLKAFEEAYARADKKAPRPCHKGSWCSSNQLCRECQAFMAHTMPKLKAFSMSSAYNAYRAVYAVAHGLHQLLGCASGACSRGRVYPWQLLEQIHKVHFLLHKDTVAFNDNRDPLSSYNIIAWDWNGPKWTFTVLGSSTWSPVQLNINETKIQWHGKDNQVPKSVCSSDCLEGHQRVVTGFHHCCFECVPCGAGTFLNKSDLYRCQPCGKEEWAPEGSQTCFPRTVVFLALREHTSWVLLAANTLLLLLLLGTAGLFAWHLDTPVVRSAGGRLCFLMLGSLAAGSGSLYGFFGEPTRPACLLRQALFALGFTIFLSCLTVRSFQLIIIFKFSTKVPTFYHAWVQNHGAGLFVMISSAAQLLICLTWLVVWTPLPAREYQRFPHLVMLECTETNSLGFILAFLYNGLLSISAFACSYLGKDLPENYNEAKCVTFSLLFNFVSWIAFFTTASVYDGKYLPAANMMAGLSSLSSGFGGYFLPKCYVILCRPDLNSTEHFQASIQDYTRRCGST
T1 sequence (Q7RTX0 21-852): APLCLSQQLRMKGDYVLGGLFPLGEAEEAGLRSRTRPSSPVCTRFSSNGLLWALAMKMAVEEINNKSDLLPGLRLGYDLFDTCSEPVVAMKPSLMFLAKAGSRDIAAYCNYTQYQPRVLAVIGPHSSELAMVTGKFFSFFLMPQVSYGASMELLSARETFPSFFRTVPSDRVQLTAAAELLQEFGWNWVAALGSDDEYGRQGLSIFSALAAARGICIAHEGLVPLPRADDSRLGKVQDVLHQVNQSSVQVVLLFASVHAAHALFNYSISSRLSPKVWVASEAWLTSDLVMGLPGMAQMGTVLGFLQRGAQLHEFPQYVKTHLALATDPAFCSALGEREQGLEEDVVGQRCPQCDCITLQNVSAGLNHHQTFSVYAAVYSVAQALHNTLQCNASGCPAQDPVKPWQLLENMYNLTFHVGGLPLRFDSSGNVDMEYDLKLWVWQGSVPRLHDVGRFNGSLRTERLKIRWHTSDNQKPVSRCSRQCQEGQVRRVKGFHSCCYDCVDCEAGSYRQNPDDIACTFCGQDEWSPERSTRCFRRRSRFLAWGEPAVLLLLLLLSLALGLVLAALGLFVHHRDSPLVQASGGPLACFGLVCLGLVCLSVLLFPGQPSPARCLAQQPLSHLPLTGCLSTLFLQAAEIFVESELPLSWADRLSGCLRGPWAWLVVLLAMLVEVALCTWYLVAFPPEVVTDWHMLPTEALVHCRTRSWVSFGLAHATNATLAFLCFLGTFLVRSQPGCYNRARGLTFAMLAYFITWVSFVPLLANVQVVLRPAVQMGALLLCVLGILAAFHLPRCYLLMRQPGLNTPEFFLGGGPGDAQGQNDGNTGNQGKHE
Excerpt: In umami taste enhancement activity assay experiments, which produce an “EC50 ratio” measurement of how effectively the amide compounds of the invention enhance the savory flavorant (typically MSG) already in a test solution. A series of measurements of the dose response is run in solutions comprising MSG alone, then a second dose response is run with MSG in combination with predetermined amounts of a candidate compound of Formula (I) at the same time.
In this assay, increasing concentrations of monosodium glutamate (ranging from 12 μM to 81 mM) were presented, in duplicates, in the presence or absence of a fixed concentration of the test compound. Typical compound concentrations tested were 30 μM, 10 μM, 3 μM, 1 μM, 0.3 μM, 0.1 μM and 0.03 μM. The relative efficacy of compounds of […] at enhancing the receptor was determined by calculating the magnitude of a shift in the EC50 for monosodium glutamate. Enhancement was defined as a ratio (EC50R) corresponding to the EC50 of monosodium glutamate, determined in the absence of the test compound, divided by the EC50 of monosodium glutamate, determined in the presence of the test compound.
Stated alternatively, “EC50 ratio” as compared to MSG is calculated based on the following definitions:
EC50 Ratio vs. MSG=EC50 (MSG)/EC50 (MSG+[Compound]) wherein “[compound]” refers to the concentration of the compound of Formula (I) used to elicit (or enhance or potentiate) the MSG dose response.
It should be noted that the EC50 ratio measured can depend somewhat on the concentration of the compound itself. Preferred savory enhancers would have a high EC50 Ratio vs. MSG at a low concentration of the compound used.

[2] = system: human panelists, savory taste; experiment: Savory taste test with trained human panel (difference from reference); type: in vivo; conditions: for Taste Data: cpd concentration at which 12 mM MSG + cpd is as strong as 12 mM MSG + 100 μM IMP: with 12 mM MSG, reference 12 mM MSG + 100 μM IMP; for Taste Data: cpd concentration as strong as 12 mM MSG: compound alone, without MSG
Experimental: General Panelist Selection: Basic screening of sensory taste testers: Potential panelists were tested for their abilities to rank and rate intensities of solutions representing the five basic tastes. Panelists ranked and rated intensity of five different concentrations of each of the five following compounds: sucrose (sweet), sodium chloride (salty), citric acid (sour), caffeine (bitter), and monosodium glutamate (savory). In order to be selected for participation in testing, panelists needed to correctly rank and rate samples for intensity, with a reasonable number of errors.
Preliminary Taste Tests: The panelists selected in the above procedure were deemed qualified for performing Preliminary Taste Testing procedures. The preliminary taste tests are used to evaluate new compounds for intensity of basic tastes and off-tastes. A small group of panelists (n=5) taste approximately 5 concentrations of the compound (range typically between 1-100 μM, in half-log cycles, e.g., 1, 3, 10, 30, and 100 μM) in water and in a solution of 12 mM MSG to evaluate enhancement. Panelists rate the five basic tastes (sweet, salty, sour, bitter, and savory) as well as off-tastes (such as chemical, metallic, sulfur) on a labeled magnitude scale. Samples are served in 10 mL portions at room temperature. The purpose of the test is to determine the highest concentration at which there is no objectionable off-taste, and determine if obvious savory taste or enhancement of savory taste exists at any of the concentrations tested.
Trained Panelist Selection: A trained expert panel was used to further evaluate compounds that had been tested with the preliminary taste test.
Panelists for the trained panel were selected from the larger group of qualifying taste panelists. Panelists were further trained on savory taste by ranking and rating experiments using MSG and IMP combinations. Panelists completed a series of ranking, rating, and difference from reference tests with savory solutions. In ranking and rating experiments, panelists evaluated easy MSG concentrations (0, 6, 18, 36 mM) and more difficult MSG concentrations (3, 6, 12, 18 mM MSG) in water.
Compound testing with Trained Panel: Compounds tested by the trained panel were evaluated in difference from reference experiments. […] Test samples were solutions with varying amounts of MSG, IMP, and the compound. Typically, each session compares the reference sample to numerous test samples. […] Compounds were tested against the reference in samples with and without 12 mM MSG. All samples were presented in 10 ml volumes at room temperature. Two sessions were completed for each compound tested to evaluate panel reproducibility.

[3] = system: trained tasters, savory, salt, spice flavors; experiment: Italian sausage rank-rating intensity taste test; type: in vivo, human; conditions: scale 0-10, ten tasters
Excerpt: Three different dry Italian sausage seasoning mixes were formulated by dry blending the ingredients shown in the Tables below, then rehydrated during the formulation of corresponding sausages. One control sample of seasoning mix (Tables 36-1a, b) contained no MSG, and no compounds of the invention. A second sample of seasoning mix and sausage contained added MSG (Tables 36-2a, b). A third sample of Seasoning mix and corresponding sausage also contained added savory flavor concentrate compositions (prepared as per Example 34) containing (0.1% wt/wt) of compounds 1 and 24 ([…]).
Ten trained tasters were trained to identify the relative intensities of the following taste attributes: salty, savory/meaty, umami, brothiness, bitter, linger and off flavors. A rank-rating intensity test was used to evaluate the Italian Sausagesamples. A rank rating is a difference test to determine whether a sensory difference is perceived between various samples. Samples that were evaluated were the Italian Sausage no MSG, Italian sausage with MSG, Italian sausage with compounds 1 and 24 but no MSG. The panelists evaluated 3 randomized, blind coded samples of one ounce of Italian sausage served at 140° F., and ranked the intensity of savory, salt, spice flavors on a scale of 0-10: 0 being the least intense and 10 being the most intenese, and the scores were averaged for individual category.

Compound	Taste Data: cpd concentration at which 12 mM MSG + cpd is as strong as 12 mM MSG + 100 μM IMP [2]	melting point	other results
COC(=O)[C@@H](CC(C)C)NC(=O)c1ccc2c(c1)OCO2 [Example 5, (R)-methyl 2-(benzo[d][1,3]dioxole-6-carboxamido)-4-methylpentanoate]	12 mM MSG + 10 μM cpd as		EC50 ratio (enhancement of the effectiveness of monosodium glutamate) ([1]; compound present at 0.1 μM): 4.9
COc1cc(C)ccc1CNC(=O)C(=O)NCCc1ccccn1 [Example 26, N-(2-methoxy-4-methylbenzyl)-N′-(2-(pyridin-2-yl)ethyl)oxalamide]	12 mM MSG + 1 μM cpd as	128 to 131 °C	Taste Data: cpd concentration as strong as 12 mM MSG [2]: 1 μM cpd as strong as
CCCC(CCC)NC(=O)c1ccc2c(c1)OC(C)O2 (stereo not drawn) [Example 9, N-(heptan-4-yl)-2-methylbenzo[d][1,3]dioxole-5-carboxamide]			EC50 ratio (enhancement of the effectiveness of monosodium glutamate) ([1]; compound present at 0.03 μM): 3.68
COc1ccc2c(c1)CCC2NC(=O)c1ccc(OC)c(C)c1 (racemic) [Example 22, (R/S)-4-Methoxy-N-(5-methoxy-2,3-dihydro-1H-inden-1-yl)-3-methylbenzamide]	12 mM MSG + 1 μM cpd as		Taste Data: cpd concentration as strong as 12 mM MSG [2]: 1 μM cpd as strong as
COC[C@@H](CC(C)C)NC(=O)c1ccc(C)c(C)c1 [Example 18, (R)—N-(1-methoxy-4-methylpentan-2-yl)-3,4-dimethylbenzamide]	12 mM MSG + 3 μM cpd as		
COC(=O)[C@@H](CC(C)C)NC(=O)c1ccc(OC)c(Cl)c1 [Example 16, (R)-methyl 2-(3-chloro-4-methoxybenzamido)-4-methylpentanoate]			EC50 ratio (enhancement of the effectiveness of monosodium glutamate) ([1]; compound present at 0.01 μM): 13.18
Cc1ccc(CNC(=O)C(=O)NCCc2ccccn2)cc1 [Example 25, N-(4-methyl-benzyl)-N′-(2-pyridin-2-yl-ethyl)-oxalamide]		152 to 154 °C	
CCOc1ccc(CNC(=O)C(=O)NCCc2ccccn2)c(OC)c1 [Example 28, N-(4-ethoxy-2-methoxybenzyl)-N′-(2-(pyridin-2-yl)ethyl)oxalamide]		117 to 118 °C	
COc1ccccc1CNC(=O)C(=O)NCCc1ccccn1 [Example 23, N-(2-Methoxy-benzyl)-N′-(2-pyridin-2-yl-ethyl)-oxalamide]		118 to 119 °C	EC50 ratio (enhancement of the effectiveness of monosodium glutamate) ([1]; compound present at 0.3 μM): 18.85
CC1CCCC(NC(=O)c2ccc3c(c2)OCO3)C1C (stereo not drawn) [Example 4]			EC50 ratio (enhancement of the effectiveness of monosodium glutamate) ([1]; compound present at 1 μM): 8.4
COC(=O)[C@@H](CC(C)C)NC(=O)c1cc(OC)nc(OC)c1 [Example 20, (R)-methyl 2-(2,6-dimethoxyisonicotinamido)-4-methylpentanoate]	12 mM MSG + 3 μM cpd as		
Cc1ccc(CNC(=O)C(=O)NCCc2ccccn2)c(C)c1 [Example 27, N-(2,4-dimethylbenzyl)-N′-(2-(pyridin-2-yl)ethyl)oxalamide]		148 to 149 °C	
COC(=O)[C@@H](CC(C)C)NC(=O)c1cc(C)c(C)o1 [Example 19, (R)-methyl 2-(2,3-dimethylfuran-5-carboxamido)-4-methylpentanoate]	12 mM MSG + 10 μM cpd as		
N[C@@H](CCC(=O)O)C(=O)[O-].[Na+] [MSG, monosodium glutamate]			Average score Salt [3]: 5.24; Average score Savory [3]: 6.13; Average score Spice [3]: 5.42
